The source of these data is US6326177A, “Method and apparatus for intracellular electro-manipulation” (Eastern Virginia Medical School of the Medical College of …, priority 2000, dated 2001).

“Also recorded” adds a separate entry of the source.

Experiment [1] has as its system eosinophils. In words: Free calcein staining of eosinophil granules after Triton X-100 treatment (fluorescence and Wright-Giemsa microscopy). The note with it: 5 minutes. Format: cell-based, human. Here is the method: BOTTOM ROW: Wright-Giemsa stained (above) and fluorescent (below) images of eosinophils treated with 1 μM free calcein+0.005% Triton X-100 for 5 minutes (left), eosinophils treated with 0.01% Triton X-100+1 μM free calcein (5 minutes) (center) and eosinophils incubated in 0.05% Triton X-100+1 μM free calcein for 5 minutes.
Free calcein is a highly fluorescent modified fluorescein with 6 negative and 2 positive charges that is membrane impermeant. In its methyl ester form, calcein-AM, it is non-fluorescent and membrane permeable. When used as a fluorescent stain for cells, calcein-AM passes through the surface membrane and is cleaved to free calcein+the methyl ester residue by intracellular esterase activities. This modification traps the free calcein in the cytoplasm of the cell, and retention of the free calcein is a common criterion for intactness of the surface membrane.

For experiment [2], the system named is PMN. Nature of the experiment: Triton X-100 effect on PMN in the free calcein staining experiment. Format: cell-based, human. The note with it: 5 minutes. Here is the method:
Aliquots of an eosinophil-enriched leukocyte preparation (65% eosinophils) were exposed to 1 μM free calcein in HBSSw/o plus increasing amounts (0%-0.05%) Triton X-100 (5 minutes, 25° C.) and examined microscopically. […] Red eosinophil autofluorescence was readily visible and was also visible in all conditions up to and including the free calcein +0.01% Triton exposure. […] After Wright-Giemsa staining, these were recognized to be the residual nuclei of fully detergent-solubilized cells (pale green fluorescence) with associated eosinophilic granules corresponding exactly to the punctate areas of bright fluorescence (see FIG. 26).
Calcein-AM stained eosinophils trap free calcein in their cytoplasm after staining (left), and the intracellular free calcein is excluded from the eosinophil's large granules as shown on the left.

The mark [3] stands for this setting: 0.001% Triton X-100 + 1 μM free calcein.
The mark [4] stands for this setting: 0.005% Triton X-100 + 1 μM free calcein.

For the compound `O=C(O)CN(CC(=O)O)Cc1cc2c(cc1O)Oc1cc(O)c(CN(CC(=O)O)CC(=O)O)cc1C21OC(=O)c2ccccc21` [free calcein], the “calcein staining of eosinophils exposed to free calcein without Triton” value in experiment [1] (1 μM free calcein in HBSSw/o, 0% Triton, 25° C.) is reported as “no calcein staining; also recorded: incapable of staining eosinophil cytoplasm”.

Triton X-100: the “free calcein staining / detergent effect on eosinophils” value is “free calcein continues to be excluded from eosinophils” in experiment [1] (setting [3]); “the morphology of some eosinophils suggests partial detergent solubilization which is accompanied by bright free calcein staining of eosinophil granules” in experiment [1] (setting [4]); “occasional eosinophils showed an isolated bright green granule within the eosinophil autofluorescence pattern; also recorded: all eosinophils show nuclear changes suggestive of detergent effect, and many contain 1-2 bright granules on a background of red autofluorescence” in experiment [1] (0.01% Triton X-100 + 1 μM free calcein); “many discrete areas of pale green fluorescence with overlying, bright green punctate areas of fluorescence; also recorded: only eosinophil nuclear remnants are seen” in experiment [1] (0.05% Triton X-100 + 1 μM free calcein). Moreover, the “free calcein staining / detergent effect on PMN” value in experiment [2] (setting [3]) was “stains the fine granules of a PMN showing obvious detergent effects”; in experiment [2] (setting [4]), “detergent solubilized PMN show very fine, fluorescent "calcein sand" staining patterns”.
